Reference: the NIST ThermoML archive (doi:10.1016/j.fluid.2018.04.025)
Numbers after ± are expanded uncertainties.

Columns and labels:
[1] = 101.3 kPa, Liquid; for viscosity: Falling or rolling sphere viscometry; for speed of sound: Frequency=3 MHz, Sing-around technique in a fixed-path interferometer; for mass density: Vibrating tube method
[2] = xn = mol fraction of the nth substance listed; conditions: 101 kPa, Liquid, x2 = 0; for viscosity: Falling or rolling sphere viscometry; for speed of sound: Frequency=3 MHz, Sing-around technique in a fixed-path interferometer; for mass density: Vibrating tube method

| SMILES | viscosity ([2]; 298.15 K) [mPa·s] | speed of sound ([2]; 298.15 K) [m/s] | mass density ([2]; 298.15 K) [kg/m3] | viscosity ([2]; 303.15 K) [mPa·s] | speed of sound ([2]; 303.15 K) [m/s] | mass density ([2]; 303.15 K) [kg/m3] | viscosity ([2]; 308.15 K) [mPa·s] | speed of sound ([2]; 308.15 K) [m/s] | mass density ([2]; 308.15 K) [kg/m3] | viscosity ([2]; 313.15 K) [mPa·s] | speed of sound ([2]; 313.15 K) [m/s] | mass density ([2]; 313.15 K) [kg/m3] | viscosity ([2]; 318.15 K) [mPa·s] | speed of sound ([2]; 318.15 K) [m/s] | mass density ([2]; 318.15 K) [kg/m3] | viscosity ([2]; 323.15 K) [mPa·s] | speed of sound ([2]; 323.15 K) [m/s] | mass density ([2]; 323.15 K) [kg/m3] | also measured |
| --- | --- | --- | --- | --- | --- | --- | --- | --- | --- | --- | --- | --- | --- | --- | --- | --- | --- | --- | --- |
| CCCC[n+]1ccn(C)c1.O=S(=O)([N-]S(=O)(=O)C(F)(F)F)C(F)(F)F | – | – | – | – | – | – | – | – | – | – | – | – | – | – | – | – | – | – | viscosity ([1]; 298.15 K): 51.15 ± 0.74 mPa·s; speed of sound ([1]; 298.15 K): 1227.3 ± 2.1 m/s; mass density ([1]; 298.15 K): 1436.02 ± 1.9 kg/m3; viscosity ([1]; 303.15 K): 41.88 ± 0.74 mPa·s; speed of sound ([1]; 303.15 K): 1216.3 ± 2.1 m/s; mass density ([1]; 303.15 K): 1431.22 ± 1.9 kg/m3; viscosity ([1]; 308.15 K): 34.58 ± 0.67 mPa·s; speed of sound ([1]; 308.15 K): 1205.5 ± 2.1 m/s; mass density ([1]; 308.15 K): 1426.43 ± 1.8 kg/m3; viscosity ([1]; 313.15 K): 28.98 ± 0.62 mPa·s; speed of sound ([1]; 313.15 K): 1194.7 ± 2.1 m/s; mass density ([1]; 313.15 K): 1421.64 ± 1.8 kg/m3; viscosity ([1]; 318.15 K): 24.6 ± 0.59 mPa·s; speed of sound ([1]; 318.15 K): 1184 ± 2.1 m/s; mass density ([1]; 318.15 K): 1416.84 ± 1.8 kg/m3; viscosity ([1]; 323.15 K): 21.1 ± 0.57 mPa·s; speed of sound ([1]; 323.15 K): 1173.5 ± 2.1 m/s; mass density ([1]; 323.15 K): 1411.89 ± 1.8 kg/m3 |
| CCCCO [butan-1-ol] + CCCC[n+]1ccn(C)c1.O=S(=O)([N-]S(=O)(=O)C(F)(F)F)C(F)(F)F | 2.57 ± 0.6 | 1242.4 ± 1 | 806.704 ± 0.17 | 2.26 ± 0.6 | 1225.5 ± 1 | 802.704 ± 0.17 | 1.99 ± 0.6 | 1208.7 ± 1 | 798.992 ± 0.17 | 1.77 ± 0.6 | 1192 ± 1 | 795.065 ± 0.17 | 1.58 ± 0.6 | 1175.4 ± 1 | 791.094 ± 0.18 | 1.41 ± 0.6 | 1158.8 ± 1 | 787.075 ± 0.18 | – |
| CCCO [propan-1-ol] + CCCC[n+]1ccn(C)c1.O=S(=O)([N-]S(=O)(=O)C(F)(F)F)C(F)(F)F | 1.89 ± 0.6 | 1206.6 ± 0.86 | 799.924 ± 0.14 | 1.69 ± 0.6 | 1189.5 ± 0.86 | 795.888 ± 0.14 | 1.51 ± 0.6 | 1172.5 ± 0.85 | 791.815 ± 0.14 | 1.35 ± 0.6 | 1155.6 ± 0.85 | 787.7 ± 0.14 | 1.22 ± 0.6 | 1138.8 ± 0.84 | 783.538 ± 0.15 | 1.09 | 1122 ± 0.84 | 779.321 ± 0.15 | – |
